Patent US4772586A, “Novel derivatives of arginine vasopressin antagonists” (Medical College of Ohio, priority 1986, dated 1988)
*1 amine or outer side, *2 acyl side, *3 side chain or, on linkers, in order; H or OH if unused. Where a SMILES comes first, the peptide text is derived from it. Bridges are numbered along the chain shown (N, C = ends). [ ]: non-standard residue; d: D form. The star is where a group is joined. Ethylenediamine = C(CN[*:2])N[*:1]; X1 = O=C(CC1(S[*:2])CCCCC1)[*:1]; NH(CH2)4NH2 = NCCCCN*; NHBu = CCCCN*

Columns and labels:
[1] = tested on: vasopressor response to arginine vasopressin; assay: Antagonism to the vasopressor response (Anti-VP); assay type: in vivo; conditions: estimated in vivo pA2; for Anti-VP pA2: Table 1
Procedure: Antagonism to the vasopressor response was estimated in accordance with Dyckes et al., J. Med. Chem., vol. 17 (1974) at 969. The values are expressed as pA2 values, defined as in Schild et al., Br. J. Pharmacol., vol. 2 (1947) at 189.
(§1) Antagonistic potencies were determined and expressed as "effective doses" and pA2 values. The "effective dose" is defined as the dose (in nanomoles per kilogram) that reduces the response seen from 2x units of agonist injected 20 min after the dose of antagonist to the response with 1x units of agonist. Estimated in vivo "pA2 " values represent the negative logarithms of the effective doses, divided by the estimated volume of distribution (67 ml/kg).

[2] = tested on: antidiuretic response to arginine vasopressin; assay: Antagonism of the antidiuretic response to arginine vasopressin (Anti-ADH); assay type: in vivo, rats; conditions: for Anti-ADH pA2: Table 1, estimated in vivo pA2 = negative log of effective dose divided by volume of distribution (67 ml/kg); for Anti-ADH Potency pA2: estimated in vivo pA2
Procedure: Activity as antidiuretic agonists was determined by intravenous injection of the compounds being evaluated in ethanol-anesthesized water-loaded rats in accordance with Sawyer, Endocrinology, vol. 63 (1958) at 694. Antagonism of the antidiuretic response to subsequent injections of arginine vasopressin was tested by the method of Sawyer et al., Science, vol. 212 (1981) at 49.
as §1

CC[C@H](C)[C@@H]1NC(=O)[C@H](Cc2ccccc2)NC(=O)[C@@H](Cc2ccccc2)NC(=O)CC2(CCCCC2)SSC[C@@H](C(=O)N2CCC[C@H]2C(=O)N[C@@H](CCCNC(=N)N)C(=O)NCC(N)=O)NC(=O)[C@H](CC(N)=O)NC1=O [d(CH2)5 [D-Phe^2,Ile^ 4]AVP, [1-(beta-mercapto-beta,beta-cyclopentamethylenepropionic acid), 2-D-phenylalanine, 4-isoleucine]-arginine vasopressin, reference compound] ([dF]FINCPRG-NH2; linker N-5 via X1)
Anti-VP pA2 [1]: 7.86 ± 0.05 | Anti-ADH pA2 [2]: 8.24 ± 0.08

CCOc1ccc(C[C@H]2NC(=O)CC3(CCCCC3)SSC[C@@H](C(=O)N3CCC[C@H]3C(=O)N[C@@H](CCCNC(=N)N)C(=O)NCCCCN)NC(=O)[C@H](CC(N)=O)NC(=O)[C@H]([C@@H](C)CC)NC(=O)[C@H](Cc3ccccc3)NC2=O)cc1 [[1-(beta-mercapto-beta,beta-cyclopentamethylenepropionic acid), 2-D-(O-ethyl)tyrosine, 4-isoleucine, 8-arginine-N-(delta-amino)butylamide,9-desglycinamide] vasopressin] ([dY](Et)FINCPR-{NH(CH2)4NH2}; linker N-5 via X1)
Anti-VP Potency pA2 ([1]; Table 4, ^+ = mixed): 7.78 ± 0.4 | Anti-ADH Potency pA2 ([2]; Table 4): 7.68 ± 0.05

CC[C@H](C)[C@@H]1NC(=O)[C@H](Cc2ccccc2)NC(=O)[C@@H](Cc2ccccc2)NC(=O)CC2(CCCCC2)SSC[C@@H](C(=O)N2CCC[C@H]2C(=O)N[C@@H](CCCNC(=N)N)C(=O)N[C@@H](CO)C(N)=O)NC(=O)[C@H](CC(N)=O)NC1=O [Ser(NH2), [1-(beta-mercapto-beta,beta-cyclopentamethylenepropionic acid), 2-D-phenylalanine, 4-isoleucine, 9-serinamide]-arginine vasopressin] ([dF]FINCPRS-NH2; linker N-5 via X1)
Anti-VP Potency pA2 ([1]; Table 2): 8.10 ± 0.08 | Anti-ADH Potency pA2 ([2]; Table 2): 8.10 ± 0.07

CCNC(=O)CNC(=O)[C@H](CCCNC(=N)N)NC(=O)[C@@H]1CCCN1C(=O)[C@@H]1CSSC2(CCCCC2)CC(=O)N[C@H]([C@H](C)CC)C(=O)N[C@@H](Cc2ccccc2)C(=O)N[C@@H]([C@@H](C)CC)C(=O)N[C@@H](CC(N)=O)C(=O)N1 [[1-(beta-mercapto-beta,beta-cyclopentamethylenepropionic acid), 2-D-isoleucine, 4-isoleucine, 9-glycine-N-ethylamide]-arginine vasopressin] ([dI]FINCPRG-NHEt; linker N-5 via X1)
Anti-VP Potency pA2 ([1]; Table 4, ^+ = mixed): 6.54 ± 0.11 | Anti-ADH Potency pA2 ([2]; Table 4): 7.86 ± 0.05

CC[C@H](C)[C@@H]1NC(=O)[C@H](Cc2ccccc2)NC(=O)[C@@H](Cc2ccccc2)NC(=O)CC2(CCCCC2)SSC[C@@H](C(=O)N2CCC[C@H]2C(=O)N[C@@H](CCCNC(=N)N)C(=O)NCC(=O)NCCN)NC(=O)[C@H](CC(N)=O)NC1=O [[1-(beta-mercapto-beta,beta-cyclopentamethylenepropionic acid), 2-D-phenylalanine, 4-isoleucine, 9-glycine-N-(beta-amino)ethylamide]-arginine vasopressin] ([dF]FINCPRG-Ethylenediamine; linker N-5 via X1)
Anti-VP Potency pA2 ([1]; Table 4, ^+ = mixed): 7.58 ± 0.07 | Anti-ADH Potency pA2 ([2]; Table 4): 8.10 ± 0.10

CCOc1ccc(C[C@H]2NC(=O)CC3(CCCCC3)SSC[C@@H](C(=O)N3CCC[C@H]3C(=O)N[C@@H](CCCNC(=N)N)C(=O)NCC(N)=O)NC(=O)[C@H](CC(N)=O)NC(=O)[C@H](C(C)C)NC(=O)[C@H](Cc3ccccc3)NC2=O)cc1 [d(CH2)5 [D-Tyr(Et)^2]VAVP, [1-(beta-mercapto-beta,beta-cyclopentamethylenepropionic acid), 2-D-(O-ethyl)tyrosine, 4-valine]-arginine vasopressin, reference compound] ([dY](Et)FVNCPRG-NH2; linker N-5 via X1)
Anti-VP pA2 [1]: 8.22 ± 0.12 | Anti-ADH pA2 [2]: 7.81 ± 0.07

CCCCNC(=O)CNC(=O)[C@H](CCCNC(=N)N)NC(=O)[C@@H]1CCCN1C(=O)[C@@H]1CSSC2(CCCCC2)CC(=O)N[C@@H](Cc2ccc(OC)cc2)C(=O)N[C@@H](Cc2ccccc2)C(=O)N[C@@H](CCC(N)=O)C(=O)N[C@@H](CC(N)=O)C(=O)N1 [d(CH2)5 [Tyr(Me)^2, Gly(NHBu-n)^9]AVP, [1-(beta-mercapto-beta,beta-cyclopentamethylenepropionic acid), 2-(O-methyl)tyrosine, 9-glycine-N-(n-butyl)amide]-arginine vasopressin] (Y(Me)FQNCPRG-NHBu; linker N-5 via X1)
Anti-VP Potency pA2 ([1]; Table 4, ^+ = mixed): 8.44 ± 0.07

N=C(N)NCCC[C@H](NC(=O)[C@@H]1CCCN1C(=O)[C@@H]1CSSC2(CCCCC2)CC(=O)N[C@@H](Cc2ccc(O)cc2)C(=O)N[C@@H](Cc2ccccc2)C(=O)N[C@@H](CCC(N)=O)C(=O)N[C@@H](CC(N)=O)C(=O)N1)C(=O)NCC(N)=O [d(CH2)5 AVP, [1-(beta-mercapto-beta,beta-cyclopentamethylenepropionic acid)]-arginine vasopressin, reference compound] (YFQNCPRG-NH2; linker N-5 via X1)
Anti-VP pA2 [1]: 8.16 ± 0.09

N=C(N)NCCC[C@H](NC(=O)[C@@H]1CCCN1C(=O)[C@@H]1CSSC2(CCCCC2)CC(=O)N[C@@H](Cc2ccc(O)cc2)C(=O)N[C@@H](Cc2ccccc2)C(=O)N[C@@H](CCC(N)=O)C(=O)N[C@@H](CC(N)=O)C(=O)N1)C(N)=O [desGly^9 d(CH2)5 AVP, [1-(beta-mercapto-beta,beta-cyclopentamethylenepropionic acid), 9-desglycine]-arginine vasopressin] (YFQNCPR-NH2; linker N-5 via X1)
Anti-VP pA2 [1]: 8.40 ± 0.06

CCCCNC(=O)[C@H](CCCNC(=N)N)NC(=O)[C@@H]1CCCN1C(=O)[C@@H]1CSSC2(CCCCC2)CC(=O)N[C@H](Cc2ccccc2)C(=O)N[C@@H](Cc2ccccc2)C(=O)N[C@@H]([C@@H](C)CC)C(=O)N[C@@H](CC(N)=O)C(=O)N1 [[1-(beta-mercapto-beta,beta-cyclopentamethylenepropionic acid), 2-D-phenylalanine, 4-isoleucine, 8-arginine-N-(n-butyl)amide, 9-desglycinamide)] vasopressin] ([dF]FINCPR-NHBu; linker N-5 via X1)
Anti-VP Potency pA2 ([1]; Table 4, ^+ = mixed): 7.13 ± 0.08

N=C(N)NCCC[C@H](NC(=O)[C@@H]1CCCN1C(=O)[C@@H]1CSSC2(CCCCC2)CC(=O)N[C@@H](Cc2ccc(O)cc2)C(=O)N[C@@H](Cc2ccccc2)C(=O)N[C@@H](CCC(N)=O)C(=O)N[C@@H](CC(N)=O)C(=O)N1)C(=O)O [desGly(NH2)^9 d(CH2)5 AVP, [1-(beta-mercapto-beta,beta-cyclopentamethylenepropionic acid), 9-desglycinamide]-arginine vasopressin] (YFQNCPR-OH; linker N-5 via X1)
Anti-VP pA2 [1]: 7.88 ± 0.06

COc1ccc(C[C@@H]2NC(=O)CC3(CCCCC3)SSC[C@@H](C(=O)N3CCC[C@H]3C(=O)N[C@@H](CCCNC(=N)N)C(=O)NCC(=O)NCCN)NC(=O)[C@H](CC(N)=O)NC(=O)[C@H](CCC(N)=O)NC(=O)[C@H](Cc3ccccc3)NC2=O)cc1 [[1-(beta-mercapto-beta,beta-cyclopentamethylenepropionic acid), 2-(O-methyl)tyrosine, 9-glycine-N-(beta-amino)ethylamide]-arginine vasopressin] (Y(Me)FQNCPRG-Ethylenediamine; linker N-5 via X1)
Anti-VP Potency pA2 ([1]; Table 4, ^+ = mixed): 8.39 ± 0.05
